Earlier results as cited in patent US8106000B2, “Colonic delivery of adsorbents” (Da Volterra, priority 2005, dated 2012).

Conditions: oral doses 1 to […]

expected residual ciprofloxacin in feces (% of oral doses): ≤ 25%
SMILES: O=C(O)c1cn(C2CC2)c2cc(N3CCNCC3)c(F)cc2c1=O [ciprofloxacin]
